Data from patent US20260209214A1, “LSD1 MODULATORS” (RECURSION PHARMACEUTICALS, INC., priority 2022, published 2026).

Molecular target: Recombinant human LSD1 (Homo sapiens, UniProt O60341)
Experiment: LSD1 inhibition assay (HTRF LSD1 Histone H3K4 mono-demethylation assay, me1->me0)
Type: biochemical
Settings: 20 nM recombinant human LSD1, 95 nM H3K4(me1) biotinylated peptide, 15 min preincubation, 60 min at 25° C., read-out: LSD1 inhibition IC50 (nM range)
Outline: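 Recombinant human LSD1 (20 nM) pre-incubated 15 min with 10 semi-log compound doses, then 95 nM biotinylated H3K4me1 peptide for 60 min at 25 °C in pH 8.5 Tris/NaCl buffer with 10 μM FAD, 1 mM DTT. HTRF me0-antibody read after 90 min; IC50 from 4-parameter fit.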

| SMILES | IC50 [nM] |
| --- | --- |
| N#Cc1ccc(-c2cccc(CN3[C@@H]4CC[C@H]3[C@@H](N)C4)c2N2CCC(F)CC2)cc1F (racemic) [Example 241, 3'-{[(1S,2S,4R)-2-amino-7-azabicyclo[2.2.1]heptan-7-yl]methyl}-3-fluoro-2'-(4-fluoropiperidin-1-yl)-[1,1'-biphenyl]-4-carbonitrile] | 100 to 1000 |
| N#Cc1ccc(-c2cccc(CN3[C@@H]4CC[C@H]3[C@@H](N)C4)c2C(F)(F)F)cc1F (racemic) [Example 200, 3'-{[(1S,2S,4R)-2-amino-7-azabicyclo[2.2.1]heptan-7-yl]methyl}-3-fluoro-2'-(trifluoromethyl)-[1,1'-biphenyl]-4-carbonitrile] | 25 to 100 |
| N#Cc1ccc(-c2cc(CN3[C@@H]4CC[C@H]3[C@@H](N)C4)ccc2-c2ccsn2)cc1F (racemic) [Example 252, 5'-{[(1S,2S,4R)-2-amino-7-azabicyclo[2.2.1]heptan-7-yl]methyl}-3-fluoro-2'-(1,2-thiazol-3-yl)-[1,1'-biphenyl]-4-carbonitrile] | 25 to 100 |
| N#Cc1ccc(-c2cccc(CN3[C@H]4CC[C@@H]3[C@H](N)C4)c2C2CC2)cc1F (single isomer, unassigned) [Example 186] | 10 to 25 |
| COC1(C)CCN(c2ccc(CN3[C@@H]4CC[C@H]3[C@@H](N)C4)cc2-c2ccc(C#N)c(F)c2)CC1 (racemic) [Example 232, 5'-{[(1S,2S,4R)-2-amino-7-azabicyclo[2.2.1]heptan-7-yl]methyl}-3-fluoro-2'-(4-methoxy-4-methylpiperidin-1-yl)-[1,1'-biphenyl]-4-carbonitrile] | 10 to 25 |
| N#Cc1ccc(-c2cccc(CC3CNCCO3)c2-c2ocnc2F)cc1 (stereo in doubt) [Example 2, 2′-(4-fluoro-1,3-oxazol-5-yl)-3′-{[(2R)-morpholin-2-yl]methyl}-[1,1′-biphenyl]-4-carbonitrile] | 10 to 25 |
| N#Cc1ccc(-c2cc(CN3[C@@H]4CC[C@H]3[C@@H](N)C4)ccc2N2CCCCC2)cc1F (racemic) [Example 255, 5'-{[(1S,2S,4R)-2-amino-7-azabicyclo[2.2.1]heptan-7-yl]methyl}-3-fluoro-2'-(piperidin-1-yl)-[1,1'-biphenyl]-4-carbonitrile] | 10 to 25 |
| N#Cc1ccc(-c2ccc(F)c(CN3C[C@@H]4[C@H](N)[C@@H]4C3)c2Cl)cc1F [Example 291, 3'-{[(1R,5S,6S)-6-amino-3-azabicyclo[3.1.0]hexan-3-yl]methyl}-2'-chloro-3,4'-difluoro-[1,1'-biphenyl]-4-carbonitrile] | 100 to 1000 |
| N#Cc1ccc(-c2cc(CC3CNCCO3)ccc2C2COC2)cc1F (stereo not shown) [Example 150, 3-fluoro-5'-[(morpholin-2-yl)methyl]-2'-(oxetan-3-yl)-[1,1'-biphenyl]-4-carbonitrile] | > 1000 |
| N#Cc1ccc(-c2ccc(F)c(CN3C[C@]4(N)CC[C@H]3C4)c2Cl)cc1F [Example 208, 3'-{[(1S,4S)-4-amino-2-azabicyclo[2.2.1]heptan-2-yl]methyl}-2'-chloro-3,4'-difluoro-[1,1'-biphenyl]-4-carbonitrile] | 25 to 100 |
| CC(C)(c1ccc(N2CCC2)c(-c2ccc(C#N)c(F)c2)c1)C1CNCCO1 (stereo not shown) [Example 136, 2′-(azetidin-1-yl)-3-fluoro-5′-[2-(morpholin-2-yl)propan-2-yl]-[1,1′-biphenyl]-4-carbonitrile] | > 1000 |
| N#Cc1ccc(-c2cccc(C[C@@H]3CNCCO3)c2-c2ccns2)cc1F [Example 28, 3-fluoro-3′-{[(2R)-morpholin-2-yl]methyl}-2′-(1,2-thiazol-5-yl)-[1,1′-biphenyl]-4-carbonitrile] | < 10 |
| CC1(O)CCN(c2ccc(CC3CNCCO3)c(F)c2-c2ccc(C#N)c(F)c2)CC1 (stereo not shown) [Example 155, 2′,3-difluoro-6′-(4-hydroxy-4-methylpiperidin-1-yl)-3′-[(morpholin-2-yl)methyl]-[1,1′-biphenyl]-4-carbonitrile] | 100 to 1000 |
| CC1(F)CCN(c2ccc(CC3CNCCO3)cc2-c2ccc(C#N)c(F)c2)CC1 (stereo not shown) [Example 99, 3-fluoro-2′-(4-fluoro-4-methylpiperidin-1-yl)-5′-[(morpholin-2-yl)methyl]-[1,1′-biphenyl]-4-carbonitrile] | 100 to 1000 |
| CC1(C)CN(Cc2cccc(-c3ccc(C#N)c(F)c3)c2-c2ccns2)CC1N (stereo not shown) [Example 198, 3'-[(4-amino-3,3-dimethylpyrrolidin-1-yl)methyl]-3-fluoro-2'-(1,2-thiazol-5-yl)-[1,1'-biphenyl]-4-carbonitrile] | 10 to 25 |
| N#Cc1ccc(-c2cc(CC3CNCCO3)ccc2N2CCN(CC(F)F)CC2)cc1F (stereo not shown) [Example 105, 2′-[4-(2,2-difluoroethyl)piperazin-1-yl]-3-fluoro-5′-[(morpholin-2-yl)methyl]-[1,1′-biphenyl]-4-carbonitrile] | 100 to 1000 |
| Cc1ncsc1-c1c(CC2CNCCO2)cccc1-c1ccc(C#N)c(F)c1 (stereo not shown) [Example 24, 3-fluoro-2′-(4-methyl-1,3-thiazol-5-yl)-3′-[(morpholin-2-yl)methyl]-[1,1′-biphenyl]-4-carbonitrile] | 10 to 25 |
| N#Cc1ccc(-c2cc(F)cc(CC3CNCCO3)c2-c2ccns2)cc1F (stereo not shown) [Example 18, 3,5′-difluoro-3′-[(morpholin-2-yl)methyl]-2′-(1,2-thiazol-5-yl)-[1,1′-biphenyl]-4-carbonitrile] | 10 to 25 |
| N#Cc1ccc(-c2cccc(C[C@H]3CNCCO3)c2-c2ccns2)cc1F [Example 4, 3-fluoro-3′-{[(2S)-morpholin-2-yl]methyl}-2′-(1,2-thiazol-5-yl)-[1,1′-biphenyl]-4-carbonitrile] | < 10 |
